Data taken from patent publication US12649750B2, “Macrocyclic compounds, compositions, and methods of using thereof” (Sionna Therapeutics Inc., priority 2022, dated 2026).

Tests used:
NBD1 = biological target: T1, NBD1 (Homo sapiens, UniProt P13569); assay: Aggregation analysis using differential static light scattering (DSLS), thermal stability of NBD1 (ΔTagg); type: binding; conditions: ΔTagg versus DMSO control, NBD1 0.2 mg/ml
T1 construct: Purified recombinant NBD1 was produced using previously described methods; made in house
Method in brief: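 Differential static light scattering read from 25° C. to 70° C. every 0.5° C., ramp 1° C./min, on recombinant NBD1 (0.2 mg/ml; Tris/NaCl/MgCl2 buffer with 2 mM ATP, 2 mM DTT, pH 7.6, 1% glycerol) plus compound. Reported ΔTagg subtracts averaged DMSO Tagg from inflection-point Tagg; categories A ≤5, B >5-10, C >10-25° C.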

CFTR = biological target: T2, CFTR (Homo sapiens, UniProt P13569, DEL508-508); assay: TECC24 AUC fold over DMSO @10 μM, CFTR-mediated transepithelial chloride transport in CF-HBE cells; type: cell-based; conditions: test agent AUC divided by DMSO vehicle AUC, primary CF-HBE cells, ΔF508 homozygous donor, 48 hours incubation
T2 construct: Primary human bronchial epithelial cells from a ΔF508 homozygous CF donor; host or cells: primary human bronchial epithelial cells (CF-HBE), ΔF508 homozygous donor
Experimental: Example 387. TECC24 AUC Fold Over DMSO @10 μM
The effects of a test agent on CFTR-mediated transepithelial chloride transport is measured using TECC24 recording analysis. Test agents are solubilized in DMSO. Solubilized test agents are mixed with incubation medium containing DMEM/F12, Ultroser G (2%; Crescent Chemical, catalog #67042), Hyclone Fetal Clone II (2%; GE Healthcare, catalog #SH30066.02), bovine brain extract (0.25%; Lonza, catalog #CC-4098), insulin (2.5 μg/mL), IL-13 (10 ng/mL), hydrocortisone (20 nM), transferrin (2.5 μg/mL), triiodothyronine (500 nM), ethanolamine (250 nM), epinephrine (1.5 μM), phosphoethanolamine (250 nM), and retinoic acid (10 nM). Primary human bronchial epithelial cells from a ΔF508 homozygous CF donor (CF-HBE cells; from University of North Carolina Cystic Fibrosis Tissue Procurement Center), grown on Transwell HTS 24-well cell culture inserts (Costar, catalog #3378), are exposed to test agents or controls dissolved in incubation medium. The CF-HBE cells are cultured at 36.5° C. for 48 hours before TECC24 recordings are performed in the presence or absence of test agent, a positive control or vehicle (DMSO).
Following incubation, the transwell cell culture inserts containing the test agent or control-treated CF-HBE cells are loaded onto a TECC24 apparatus (TECC v7 or MTECC v2; EP Design) to record the transepithelial voltage (VT) and resistance (TEER) using 4 AgCl electrodes per well configured in current-clamp mode. The apical and basolateral bath solutions both contain (in mM) 140 NaCl, 5 KCl, 2 CaCl2, 1 MgCl2, 10 Hepes, and 10 glucose (adjusted to pH 7.4 with NaOH). To inhibit basal Na+ absorption, the ENaC inhibitor benzamil (10 μM) is added to the bath. Then, the adenylate cyclase activator, forskolin (10 μM), is added to the bath to activate CFTR. The forskolin-stimulated Cl— transport is halted by addition of CFTR inhibitor-172 (20 μM) to the bath at the end of the experiment to confirm specificity. VT and TEER recordings are digitally acquired at routine intervals using TECC or MTECC software (EP Design). VT and TEER are transformed into equivalent transepithelial Cl— current (IEQ), and the Area Under the Curve (AUC) of the IEQ time course between forskolin and CFTR inhibitor-172 addition is generated using Excel (Microsoft). Efficacy is expressed as the ratio of the test agent AUC divided by vehicle AUC. EC50s based on AUC are generated using the non-linear regression log(agonist) vs. response function in Prism software (Graphpad) with HillSlope fixed=1.
If a test agent increases the AUC of the forskolin-stimulated IEQ relative to vehicle in CF-HBE cells, and this increase is inhibited by CFTR inhibitor-172, then the test agent is considered a CFTR corrector. TECC assay efficacy is expressed as the ratio of the test agent AUC divided by DMSO vehicle AUC. As set forth in Table 2 below, a TECC value less than 12 is marked “A”; a value between 12-20 is marked “B”; a value between 20 and 80 is marked “C”. […]

T2 sequence (P13569 with tags, fused parts or gaps DEL508-508): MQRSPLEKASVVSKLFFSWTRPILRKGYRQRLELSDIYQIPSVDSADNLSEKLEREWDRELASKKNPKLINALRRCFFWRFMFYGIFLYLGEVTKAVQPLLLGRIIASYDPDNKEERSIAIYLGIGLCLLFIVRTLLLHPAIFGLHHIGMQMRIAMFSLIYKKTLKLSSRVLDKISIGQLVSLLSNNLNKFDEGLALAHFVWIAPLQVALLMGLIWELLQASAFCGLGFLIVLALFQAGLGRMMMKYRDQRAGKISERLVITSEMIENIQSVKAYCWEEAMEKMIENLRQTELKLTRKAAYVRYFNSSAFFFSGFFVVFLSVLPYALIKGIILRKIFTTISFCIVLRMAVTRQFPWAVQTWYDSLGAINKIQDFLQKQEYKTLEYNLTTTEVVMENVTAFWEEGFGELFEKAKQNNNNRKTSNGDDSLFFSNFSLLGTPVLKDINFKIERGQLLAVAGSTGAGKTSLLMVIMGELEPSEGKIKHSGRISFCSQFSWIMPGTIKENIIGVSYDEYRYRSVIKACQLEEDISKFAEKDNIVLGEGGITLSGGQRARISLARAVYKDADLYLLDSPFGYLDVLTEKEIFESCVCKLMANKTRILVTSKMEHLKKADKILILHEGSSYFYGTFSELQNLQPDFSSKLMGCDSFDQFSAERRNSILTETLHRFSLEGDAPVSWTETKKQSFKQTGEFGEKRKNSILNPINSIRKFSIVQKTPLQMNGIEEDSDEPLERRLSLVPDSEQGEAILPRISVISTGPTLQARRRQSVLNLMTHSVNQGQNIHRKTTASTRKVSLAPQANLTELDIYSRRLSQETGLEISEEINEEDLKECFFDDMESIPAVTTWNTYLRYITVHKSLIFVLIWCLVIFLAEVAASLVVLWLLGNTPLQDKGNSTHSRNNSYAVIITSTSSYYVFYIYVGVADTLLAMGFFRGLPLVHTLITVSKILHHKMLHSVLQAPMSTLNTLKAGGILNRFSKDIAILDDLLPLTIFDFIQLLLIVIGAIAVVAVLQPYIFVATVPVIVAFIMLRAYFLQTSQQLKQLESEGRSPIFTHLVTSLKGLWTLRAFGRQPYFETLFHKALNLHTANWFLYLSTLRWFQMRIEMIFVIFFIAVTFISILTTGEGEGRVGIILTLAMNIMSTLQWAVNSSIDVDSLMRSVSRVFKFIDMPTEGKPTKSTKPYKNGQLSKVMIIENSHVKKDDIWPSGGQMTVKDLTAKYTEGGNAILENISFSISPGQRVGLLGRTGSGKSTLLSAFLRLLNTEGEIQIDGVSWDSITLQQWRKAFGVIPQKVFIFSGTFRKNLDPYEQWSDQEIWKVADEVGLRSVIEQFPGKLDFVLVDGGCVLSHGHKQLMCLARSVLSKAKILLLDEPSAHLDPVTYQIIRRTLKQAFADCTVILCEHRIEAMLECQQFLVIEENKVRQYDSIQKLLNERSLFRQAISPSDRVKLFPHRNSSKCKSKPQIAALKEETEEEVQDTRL
T1 sequence (P13569 423-646 limits assumed): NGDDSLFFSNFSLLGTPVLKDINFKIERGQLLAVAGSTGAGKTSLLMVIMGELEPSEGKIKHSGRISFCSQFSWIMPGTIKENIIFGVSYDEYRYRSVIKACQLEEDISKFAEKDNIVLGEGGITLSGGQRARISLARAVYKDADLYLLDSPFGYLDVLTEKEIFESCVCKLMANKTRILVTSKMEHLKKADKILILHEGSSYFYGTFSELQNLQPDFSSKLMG

SMILES | DSLS 3D (100 μM ΔT) (NBD1) | TECC (AUC, 10 μM) (CFTR)
C[C@@H](Cc1cccc([C@@]2(C)CCCC(C)(C)CS(=O)(=O)CCc3c(c(F)cc4[nH]ccc34)Oc3ccnc(c3)-c3nc2nn3C)c1)C(=O)O (mixture of isomers) [Compound 201, (2S)-3-[3-[(6R)-22-Fluoro-3,6,10,10-tetramethyl-12,12-dioxo-24-oxa-12λ6-thia-3,4,19,28,30-pentazapentacyclo[23.3.1.12,5.015,23.016,20]triaconta-1(29),2(30),4,15,17,20,22,25,27-nonaen-6-yl]phenyl]-2-methyl-propanoic Acid] | C (a value greater than 10 °C and less than or equal to 25 °C is marked “C”) | B (a value between 12-20 is marked “B”)
CC(CC(=O)O)c1cccc([C@@]2(C)CCCC(C)(C)CS(=O)(=O)CCc3c(c(F)cc4[nH]ccc34)[S+]([O-])c3ccc(F)c(c3)-c3nc2nn3C)c1 (mixture of isomers) [Compound 217A, 3-[3-[(6R)-22,28-difluoro-3,6,10,10-tetramethyl-12,12,24-trioxo-12λ6,24λ4-dithia-3,4,19,30-tetrazapentacyclo[23.3.1.12,5.015,23.016,20]triaconta-1(29),2(30),4,15,17,20,22,25,27-nonaen-6-yl]phenyl]butanoic Acid] | B (a value above 5 °C and less than or equal to 10 °C is marked “B”) | A (a TECC value less than 12 is marked “A”)
CC(CC(=O)O)c1cccc([C@@]2(C)CCCC(C)(C)CS(=O)(=O)CCc3c(c(F)cc4[nH]ccc34)[S+]([O-])c3ccc(F)c(c3)-c3nc2nn3C)c1 (mixture of isomers) [Compound 217B, 3-[3-[(6R)-22,28-difluoro-3,6,10,10-tetramethyl-12,12,24-trioxo-12λ6,24λ4-dithia-3,4,19,30-tetrazapentacyclo[23.3.1.12,5.015,23.016,20]triaconta-1(29),2(30),4,15,17,20,22,25,27-nonaen-6-yl]phenyl]butanoic Acid] | C (a value greater than 10 °C and less than or equal to 25 °C is marked “C”) | C (a value between 20 and 80 is marked “C”)
C[C@H](Cc1cccc(C2(C)CCCC(C)(C)CS(=O)(=O)CCc3c(c(F)cc4[nH]ccc34)Oc3ccc(F)c(c3)-c3nc2nn3C)c1)C(=O)OCCN1CCN(C)CC1 (single isomer, unassigned) [Compound 182] | – | A (a TECC value less than 12 is marked “A”)
Cn1nc2nc1-c1cc(ccc1F)[S+]([O-])c1c(F)cc3[nH]ccc3c1CCS(=O)(=O)CC(C)(C)CCCC2(C)c1cccc(/C=C/C(=O)O)c1 (single isomer, unassigned) [Compound 210A, (E)-3-[3-(22,28-difluoro-3,6,10,10-tetramethyl-12,12,24-trioxo-12λ6,24λ4-dithia-3,4,19,30-tetrazapentacyclo[23.3.1.12,5.015,23.016,20]triaconta-1(29),2(30),4,15,17,20,22,25,27-nonaen-6-yl)phenyl]prop-2-enoic Acid] | – | C (a value between 20 and 80 is marked “C”)
Cn1nc2nc1-c1cc(ccc1F)[S+]([O-])c1c(F)cc3[nH]ccc3c1CCS(=O)(=O)CC(C)(C)CCCC2(C)c1cccc(/C=C/C(=O)O)c1 (single isomer, unassigned) [Compound 210B, (E)-3-[3-(22,28-difluoro-3,6,10,10-tetramethyl-12,12,24-trioxo-12λ6,24λ4-dithia-3,4,19,30-tetrazapentacyclo[23.3.1.12,5.015,23.016,20]triaconta-1(29),2(30),4,15,17,20,22,25,27-nonaen-6-yl)phenyl]prop-2-enoic Acid] | – | A (a TECC value less than 12 is marked “A”)
Cn1nc2nc1-c1cc(ccc1F)[S+]([O-])c1c(F)cc3[nH]ccc3c1CCS(=O)(=O)CC(C)(C)CCCC2(C)c1cccc(/C=C/C(=O)O)c1 (single isomer, unassigned) [Compound 210C, (E)-3-[3-(22,28-difluoro-3,6,10,10-tetramethyl-12,12,24-trioxo-12λ6,24λ4-dithia-3,4,19,30-tetrazapentacyclo[23.3.1.12,5.015,23.016,20]triaconta-1(29),2(30),4,15,17,20,22,25,27-nonaen-6-yl)phenyl]prop-2-enoic Acid] | – | B (a value between 12-20 is marked “B”)
Cn1nc2nc1-c1cc(ccc1F)[S+]([O-])c1c(F)cc3[nH]ccc3c1CCS(=O)(=O)CC(C)(C)CCCC2(C)c1cccc(/C=C/C(=O)O)c1 (single isomer, unassigned) [Compound 210D, (E)-3-[3-(22,28-difluoro-3,6,10,10-tetramethyl-12,12,24-trioxo-12λ6,24λ4-dithia-3,4,19,30-tetrazapentacyclo[23.3.1.12,5.015,23.016,20]triaconta-1(29),2(30),4,15,17,20,22,25,27-nonaen-6-yl)phenyl]prop-2-enoic Acid] | – | C (a value between 20 and 80 is marked “C”)
C[C@H](Cc1cccc([C@@]2(C)CCCC(C)(C)CS(=O)(=O)CCc3c(c(F)cc4[nH]ccc34)S(=O)(=O)c3cc(c(F)cc3N)-c3nc2nn3C)c1)C(=O)O [Compound 379C, (2R)-3-[3-[(6R)-26-Amino-22,28-difluoro-3,6,10,10-tetramethyl-12,12,24,24-tetraoxo-12λ6,24λ6-dithia-3,4,19,30-tetrazapentacyclo[23.3.1.12,5.015,23.016,20]triaconta-1(29),2(30),4,15,17,20,22,25,27-nonaen-6-yl]phenyl]-2-methyl-propanoic acid] | A (an ΔTagg value less than or equal to 5 °C is marked “A”) | –
C[C@@H](Cc1cccc([C@@]2(C)CCCC(C)(C)CS(=O)(=O)CCc3c(c(F)c(F)c4[nH]ncc34)Oc3ccc(F)c(c3)-c3nc2nn3C)c1)C(=O)O [Compound 382, (2S)-2-Methyl-3-[3-[(6R)-21,22,28-trifluoro-3,6,10,10-tetramethyl-12,12-dioxo-24-oxa-12λ6-thia-3,4,18,19,30-pentazapentacyclo[23.3.1.12,5.015,23.016,20]triaconta-1(29),2(30),4,15,17,20,22,25,27-nonaen-6-yl]phenyl]propanoic Acid] | B (a value above 5 °C and less than or equal to 10 °C is marked “B”) | –
Cc1onc(NC(=O)[C@H](C)Cc2cccc([C@@]3(C)CCCC(C)(C)CS(=O)(=O)CCc4c(c(F)c(F)c5[nH]ccc45)Oc4ccc(F)c(c4)-c4nc3nn4C)c2)c1C [Compound 384, (2R)—N-(4,5-Dimethylisoxazol-3-yl)-2-methyl-3-[3-[(6R)-21,22,28-trifluoro-3,6,10,10-tetramethyl-12,12-dioxo-24-oxa-12λ6-thia-3,4,19,30-tetrazapentacyclo[23.3.1.12,5.015,23.016,20]triaconta-1(29),2(30),4,15,17,20,22,25,27-nonaen-6-yl]phenyl]propenamide] | A (an ΔTagg value less than or equal to 5 °C is marked “A”) | –
